What all share (format): cell-based, Erwinia chrysanthemi
One test concerns the target ELIC Y38W (Dickeya chrysanthemi, UniProt P0C7B7, Y38W). The test is described as follows: Two-electrode voltage clamp, Y38W mutant ELIC expressed in Xenopus laevis oocytes. On the procedure: (§1) Stage V-VI Xenopus laevis oocytes were isolated[72] and deflocculated enzymatically in ND96 buffer without Ca^2+ (96 mM NaCl, 2 mM KCl, 1 mM MgCl2, 2 mM pyruvate, 5 mM HEPES, pH 7.4), but supplemented with 1 mg/mL collagenase B and 1 mg/mL trypsin inhibitor, for 2 h at room temperature under constant stirring. The deflocculation buffer was then gradually removed by washing the oocytes in ND96 buffer (96 mM NaCl, 2 mM KCl, 1 mM MgCl2, 1 mM CaCl2, 2 mM pyruvate, 5 mM HEPES, pH 7.4) for several iterations. The oocytes were then allowed to stir for an additional hour at room temperature under constant stirring with the buffer being periodically replaced until clear. To obtain optimal receptor expression, individually selected and healthy oocytes were injected with 0.2 ng cRNA for wild-type ELIC and 5 ng cRNA for mutants. Subsequently, oocytes were incubated for one day at 16 °C in ND96^+ buffer (96 mM NaCl, 2 mM KCl, 1 mM MgCl2, 1 mM CaCl2, 2 mM pyruvate, and 5 mM HEPES at pH 7.6). […]
(§2) Once in the oocyte chamber, whole-cell currents were recorded using a two-electrode voltage-clamp apparatus (OC-725C oocyte clamp; Harvard Apparatus), with a buffer flow rate of 5–10 mL min^−1. Currents in response to various additions of cysteamine and/or ACh, were measured with the transmembrane voltage clamped at −60 mV. […]

Another test has as its target ELIC F133W (Dickeya chrysanthemi, UniProt P0C7B7, F133W). Description: cell-based. As for the experimental part:
as §1, §2

For the next test, the target named is T1, wild-type ELIC (Dickeya chrysanthemi, UniProt P0C7B7, INS163G).
T1 construct: expressed in transfected cells; host or cells: Xenopus laevis oocytes injected with cRNA from ELIC-pTLN
The test is described as follows: Two-electrode voltage clamp, whole-cell currents of wild-type ELIC expressed in Xenopus laevis oocytes. The following applies: for IC50: ACh IC50, WT ELIC. On the procedure:
Stage V-VI Xenopus laevis oocytes were isolated[72] and deflocculated enzymatically in ND96 buffer without Ca^2+ (96 mM NaCl, 2 mM KCl, 1 mM MgCl2, 2 mM pyruvate, 5 mM HEPES, pH 7.4), but supplemented with 1 mg/mL collagenase B and 1 mg/mL trypsin inhibitor, for 2 h at room temperature under constant stirring. The deflocculation buffer was then gradually removed by washing the oocytes in ND96 buffer (96 mM NaCl, 2 mM KCl, 1 mM MgCl2, 1 mM CaCl2, 2 mM pyruvate, 5 mM HEPES, pH 7.4) for several iterations. The oocytes were then allowed to stir for an additional hour at room temperature under constant stirring with the buffer being periodically replaced until clear. To obtain optimal receptor expression, individually selected and healthy oocytes were injected with 0.2 ng cRNA for wild-type ELIC and 5 ng cRNA for mutants. Subsequently, oocytes were incubated for one day at 16 °C in ND96^+ buffer (96 mM NaCl, 2 mM KCl, 1 mM MgCl2, 1 mM CaCl2, 2 mM pyruvate, and 5 mM HEPES at pH 7.6). After expression, injected oocytes were placed in a RC-1Z oocyte chamber (Harvard Apparatus; Hamden, CT) containing buffer (pH 7.4) composed of 150 mM NaCl, 0.5 mM BaCl2, 10 mM HEPES, and 1 mM dithiothreitol or 1 µM atropine if cysteamine, or ACh, was used in the experiment, respectively. The presence of the reducing agent, dithiothreitol, ensures that the sulfhydryl group of cysteamine remains reduced.
Once in the oocyte chamber, whole-cell currents were recorded using a two-electrode voltage-clamp apparatus (OC-725C oocyte clamp; Harvard Apparatus), with a buffer flow rate of 5–10 mL min^−1. Currents in response to various additions of cysteamine and/or ACh, were measured with the transmembrane voltage clamped at −60 mV. Dose response curves for each wild-type and mutant ELIC were acquired from at least five oocytes in two different batches. […]
For orientation: Two-electrode voltage clamp holds a large cell at a set potential and records current.

For a further test, the target named is T2, ELIC A75D (Dickeya chrysanthemi, UniProt P0C7B7, A75D/INS163G).
T2 construct: expressed in transfected cells; host or cells: Xenopus laevis oocytes injected with cRNA from ELIC-pTLN
Description: Two-electrode voltage clamp, A75D mutant ELIC expressed in Xenopus laevis oocytes.

For two compounds, IC50 and EC50 results are on record in article PMC9674596, “Origin of acetylcholine antagonism in ELIC, a bacterial pentameric ligand-gated ion channel” (Communications Biology, 2022).

Molecules are shown by their SMILES.

The term IC50 denotes the concentration at which inhibition is half-maximal. In the case of `CC(=O)OCC[N+](C)(C)C` [ACh, acetylcholine], the IC50 is 400 ± 100 µM against ELIC Y38W; 8000 ± 2000 µM against ELIC F133W; 1100 ± 200 µM at wild-type ELIC (inhibition of GABA-activated current, GABA at its EC50 (2.7 mM)); 1000 ± 200 µM against wild-type ELIC (inhibition of cysteamine-activated current, cysteamine at its EC50 (0.6 mM)); 7000 ± 2000 µM against ELIC A75D.
One may read the EC50 as the concentration that produces a half-maximal response. Lower therefore signals an effect from little substance. On wild-type ELIC, `NCCCC(=O)O` [GABA, γ-aminobutyric acid] came in with a concentration giving a half-maximal response (EC50) of 2700 ± 300 µM.
